From patent US20100267561A1, “HERBICIDAL PYRIDAZINONE DERIVATIVES” (priority 2007, published 2010)

Tests used:
Format in all cases: in vivo
rice (Oryza sativa) = experiment: Test B flooded paddy test plant response
In short: (§1)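 Paddy-water application to 2-leaf plants in pots held under 3 cm of flooding; response is a 0–100 visual control rating against controls after 13 to 15 days, and a dash marks a missing result.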

[1] = tested on: umbrella sedge (Cyperus difformis); experiment: Test B flooded paddy test plant response
In short: as §1

[2] = tested on: barnyardgrass (Echinochloa crus-galli); experiment: Test B flooded paddy test plant response
In short: as §1

[3] = tested on: ducksalad (Heteranthera limosa); experiment: Test B flooded paddy test plant response
In short: as §1

wild oat (Avena fatua) = experiment: Test B pre-/postemergence plant response; details: for Oat, Wild plant response rating: postemergence, 0-100 scale; for Plant response rating, Oat, Wild: Postemergence
Source text: (§2) Seeds of plant species selected from blackgrass (Alopecurus myosuroides), downy bromegrass (Bromus tectorum), green foxtail (Setaria viridis), Italian ryegrass (Lolium multiflorum), wheat (Triticum aestivum), wild oat (Avena fatua), catchweed bedstraw (Galium aparine), bermudagrass (Cynodon dactylon), surinam grass (Brachiaria decumbens), cocklebur (Xanthium strumarium), corn (Zea mays), large crabgrass (Digitaria sanguinalis), woolly cupgrass (Eriochloa villosa), giant foxtail (Setaria faberii), goosegrass (Eleusine indica), johnsongrass (Sorghum halepense), kochia (Kochia scoparia), lambsquarters (Chenopodium album), morningglory (Ipomoea coccinea), eastern black (E.B.) nightshade (Solanum ptycanthum), yellow nutsedge (Cyperus esculentus), pigweed (Amaranthus retroflexus), common ragweed (Ambrosia elation), Russian thistle (Salsola iberica), soybean (Glycine max), common (oilseed) sunflower (Helianthus annuus), and velvetleaf (Abutilon theophrasti) were planted and treated preemergence with test chemicals formulated in a non-phytotoxic solvent mixture which included a surfactant.
(§3) At the same time, plants selected from these crop and weed species and also winter barley (Hordeum vulgare), canarygrass (Phalaris minor), chickweed (Stellaria media) and windgrass (Apera spica-venti) were treated with postemergence applications of some of the test chemicals formulated in the same manner. Plants ranged in height from 2 to 18 cm (1- to 4-leaf stage) for postemergence treatments.
(§4) Plant species in the flooded paddy test consisted of rice (Oryza sativa), umbrella sedge (Cyperus difformis), ducksalad (Heteranthera limosa) and barnyardgrass (Echinochloa crus-galli) grown to the 2-leaf stage for testing. At time of treatment, test pots were flooded to 3 cm above the soil surface, treated by application of test compounds directly to the paddy water, and then maintained at that water depth for the duration of the test. Treated plants and controls were maintained in a greenhouse for 13 to 15 days, after which time all species were compared to controls and visually evaluated. Plant response ratings, summarized in Table B, are based on a scale of 0 to 100 where 0 is no effect and 100 is complete control. A dash (-) response means no test result.

[4] = tested on: large crabgrass (Digitaria sanguinalis); experiment: Test B pre-/postemergence plant response; details: for Plant response rating, Crabgrass, Large: Postemergence
Source text: as §2, §3, §4

[5] = tested on: morningglory (Ipomoea coccinea); experiment: Test B pre-/postemergence plant response; details: for Morningglory plant response rating: postemergence, 0-100 scale; for Plant response rating, Morningglory: Postemergence
Source text: as §2, §3, §4

[6] = tested on: downy bromegrass (Bromus tectorum); experiment: Test B pre-/postemergence plant response; details: for Plant response rating, Bromegrass, Downy: Postemergence
Source text: as §2, §3, §4

[7] = tested on: green foxtail (Setaria viridis); experiment: Test B pre-/postemergence plant response; details: for Plant response rating, Foxtail, Green: Postemergence
Source text: as §2, §3, §4

[8] = tested on: surinam grass (Brachiaria decumbens); experiment: Test B pre-/postemergence plant response; details: for Surinam Grass plant response rating: postemergence, 0-100 scale; for Plant response rating, Surinam Grass: Postemergence
Source text: as §2, §3, §4

[9] = tested on: velvetleaf (Abutilon theophrasti); experiment: Test B pre-/postemergence plant response; details: for Velvetleaf plant response rating: postemergence, 0-100 scale; for Plant response rating, Velvetleaf: Postemergence
Source text: as §2, §3, §4

[10] = tested on: wheat (Triticum aestivum); experiment: Test B pre-/postemergence plant response; details: for Wheat plant response rating: postemergence, 0-100 scale; for Plant response rating, Wheat: Postemergence
Source text: as §2, §3, §4

corn (Zea mays) = experiment: Test B pre-/postemergence plant response; details: for Plant response rating, Corn: Postemergence
Source text: as §2, §3, §4

[11] = Flood (flooded paddy test), 62 g ai/ha, scale 0 to 100, 0 no effect, 100 complete control
[12] = Flood (flooded paddy test), 125 g ai/ha, scale 0 to 100, 0 no effect, 100 complete control
[13] = Flood (flooded paddy test), 250 g ai/ha, scale 0 to 100, 0 no effect, 100 complete control
[14] = Flood, 31 g ai/ha, scale 0 to 100
[15] = 62 g ai/ha, scale 0 to 100, 0 no effect, 100 complete control
[16] = 8 g ai/ha, postemergence, 0-100 scale

SMILES: COCc1cc(-c2ccc(Br)cc2)nn1-c1c(O)cnn(C)c1=O [Compound 68]
- Plant response rating, Rice (rice (Oryza sativa); [11]): 0
- Plant response rating, Rice (rice (Oryza sativa); [12]): 0
- Plant response rating, Rice (rice (Oryza sativa); [13]): 0
- Plant response rating, Rice (rice (Oryza sativa); [14]): 0
- Plant response rating, Sedge, Umbrella [1, 11]: 0
- Plant response rating, Sedge, Umbrella [1, 12]: 0
- Plant response rating, Sedge, Umbrella [1, 13]: 0
- Plant response rating, Sedge, Umbrella [1, 14]: 0
- Plant response rating, Barnyardgrass [2, 11]: 0
- Plant response rating, Barnyardgrass [2, 12]: 0
- Plant response rating, Barnyardgrass [2, 13]: 0
- Plant response rating, Barnyardgrass [2, 14]: 0
- Plant response rating, Ducksalad [3, 11]: 0
- Plant response rating, Ducksalad [3, 12]: 0
- Plant response rating, Ducksalad [3, 13]: 0
- Plant response rating, Ducksalad [3, 14]: 0
- Oat, Wild plant response rating (wild oat (Avena fatua); 8 g ai/ha): 0
- Oat, Wild plant response rating (wild oat (Avena fatua); 16 g ai/ha): 0
- Plant response rating, Oat, Wild (wild oat (Avena fatua); 31 g ai/ha, scale 0 to 100): 5
- Plant response rating, Oat, Wild (wild oat (Avena fatua); [15]): 40
- Crabgrass, Large plant response rating [4, 16]: 20
- Plant response rating, Crabgrass, Large ([4]; 16 g ai/ha, scale 0 to 100): 60
- Plant response rating, Crabgrass, Large ([4]; 31 g ai/ha, scale 0 to 100): 80
- Plant response rating, Crabgrass, Large [4, 15]: 85
- Morningglory plant response rating ([5]; 8 g ai/ha): 0
- Morningglory plant response rating ([5]; 16 g ai/ha): 0
- Plant response rating, Morningglory ([5]; 31 g ai/ha, scale 0 to 100): 0
- Plant response rating, Morningglory [5, 15]: 0
- Bromegrass, Downy plant response rating [6, 16]: 0
- Plant response rating, Bromegrass, Downy ([6]; 16 g ai/ha, scale 0 to 100): 0
- Plant response rating, Bromegrass, Downy ([6]; 31 g ai/ha, scale 0 to 100): 0
- Plant response rating, Bromegrass, Downy [6, 15]: 0
- Foxtail, Green plant response rating [7, 16]: 10
- Plant response rating, Foxtail, Green ([7]; 16 g ai/ha, scale 0 to 100): 50
- Plant response rating, Foxtail, Green ([7]; 31 g ai/ha, scale 0 to 100): 60
- Plant response rating, Foxtail, Green [7, 15]: 95
- Surinam Grass plant response rating ([8]; 8 g ai/ha): 35
- Surinam Grass plant response rating ([8]; 16 g ai/ha): 35
- Plant response rating, Surinam Grass ([8]; 31 g ai/ha, scale 0 to 100): 80
- Plant response rating, Surinam Grass [8, 15]: 80
- Velvetleaf plant response rating ([9]; 8 g ai/ha): 0
- Velvetleaf plant response rating ([9]; 16 g ai/ha): 0
- Plant response rating, Velvetleaf ([9]; 31 g ai/ha, scale 0 to 100): 0
- Plant response rating, Velvetleaf [9, 15]: 0
- Wheat plant response rating ([10]; 8 g ai/ha): 0
- Wheat plant response rating ([10]; 16 g ai/ha): 0
- Plant response rating, Wheat ([10]; 31 g ai/ha, scale 0 to 100): 0
- Plant response rating, Wheat [10, 15]: 0
- Corn plant response rating (corn (Zea mays); [16]): 0
- Plant response rating, Corn (corn (Zea mays); 16 g ai/ha, scale 0 to 100): 0
- Plant response rating, Corn (corn (Zea mays); 31 g ai/ha, scale 0 to 100): 30
- Plant response rating, Corn (corn (Zea mays); [15]): 95
